In ChEMBL document CHEMBL1201862, “PubChem BioAssay data set” (2004):
Activity calls are given as the source filed them.

Legend:
[1] = target: T1, Coagulation factor XII (Homo sapiens, UniProt P00748); type: functional;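 note: activated factor XIIa alpha cleaving a fluorogenic AMC peptide substrate; inhibitor potency from loss of enzyme activity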
T1 sequence (P00748 whole entry): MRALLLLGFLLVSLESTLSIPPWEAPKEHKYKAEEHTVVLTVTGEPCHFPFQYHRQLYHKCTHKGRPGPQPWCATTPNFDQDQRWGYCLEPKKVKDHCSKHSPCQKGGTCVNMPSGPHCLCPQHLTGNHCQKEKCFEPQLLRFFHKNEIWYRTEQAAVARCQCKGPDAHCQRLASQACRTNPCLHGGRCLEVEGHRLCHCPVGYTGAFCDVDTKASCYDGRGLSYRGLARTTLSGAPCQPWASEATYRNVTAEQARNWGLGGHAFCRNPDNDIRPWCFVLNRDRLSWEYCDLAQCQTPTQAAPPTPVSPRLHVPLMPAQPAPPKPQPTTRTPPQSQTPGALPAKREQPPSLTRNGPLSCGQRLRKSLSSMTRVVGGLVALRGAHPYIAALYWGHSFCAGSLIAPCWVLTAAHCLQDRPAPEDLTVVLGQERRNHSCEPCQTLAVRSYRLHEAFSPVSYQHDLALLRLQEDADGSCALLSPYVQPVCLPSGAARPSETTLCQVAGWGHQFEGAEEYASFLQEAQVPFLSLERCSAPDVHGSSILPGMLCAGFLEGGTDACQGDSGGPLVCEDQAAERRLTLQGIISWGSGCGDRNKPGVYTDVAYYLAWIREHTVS

[2] = target: DNA dC->dU-editing enzyme APOBEC-3G (Homo sapiens, UniProt Q9HC16); type: functional;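 note: Dose-response counterscreen measuring inhibition of APOBEC3G DNA deaminase activity, run while confirming APOBEC3A inhibitors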
[3] = target: DNA dC->dU-editing enzyme APOBEC-3A (Homo sapiens, UniProt P31941); experiment: Dose Response confirmation of small molecule APOBEC3A DNA Deaminase Inhibitors via a fluorescence-based single-stranded DNA deaminase assay. [Related pubchem assays (depositor defined):AID493011, AID493024]; type: functional
[4] = target: T2, Voltage-gated N-type calcium channel alpha-1B subunit/Amyloid beta A4 precursor protein-binding family A member 1 (Homo sapiens, UniProt Q00975+Q02410); type: protein assay
[5] = target: T2, Voltage-gated N-type calcium channel alpha-1B subunit/Amyloid beta A4 precursor protein-binding family A member 1; type: protein assay; remark: listed apart in the source
[6] = target: T3, Short transient receptor potential channel 4 (Mus musculus, UniProt Q9QUQ5); experiment: mouse TRPC4 channel activators, dose response, cell-based, HEK293 TRPC4/mu-opioid, Fluo-4 calcium (AID 434937); type: functional
T3 sequence (Q9QUQ5 whole entry): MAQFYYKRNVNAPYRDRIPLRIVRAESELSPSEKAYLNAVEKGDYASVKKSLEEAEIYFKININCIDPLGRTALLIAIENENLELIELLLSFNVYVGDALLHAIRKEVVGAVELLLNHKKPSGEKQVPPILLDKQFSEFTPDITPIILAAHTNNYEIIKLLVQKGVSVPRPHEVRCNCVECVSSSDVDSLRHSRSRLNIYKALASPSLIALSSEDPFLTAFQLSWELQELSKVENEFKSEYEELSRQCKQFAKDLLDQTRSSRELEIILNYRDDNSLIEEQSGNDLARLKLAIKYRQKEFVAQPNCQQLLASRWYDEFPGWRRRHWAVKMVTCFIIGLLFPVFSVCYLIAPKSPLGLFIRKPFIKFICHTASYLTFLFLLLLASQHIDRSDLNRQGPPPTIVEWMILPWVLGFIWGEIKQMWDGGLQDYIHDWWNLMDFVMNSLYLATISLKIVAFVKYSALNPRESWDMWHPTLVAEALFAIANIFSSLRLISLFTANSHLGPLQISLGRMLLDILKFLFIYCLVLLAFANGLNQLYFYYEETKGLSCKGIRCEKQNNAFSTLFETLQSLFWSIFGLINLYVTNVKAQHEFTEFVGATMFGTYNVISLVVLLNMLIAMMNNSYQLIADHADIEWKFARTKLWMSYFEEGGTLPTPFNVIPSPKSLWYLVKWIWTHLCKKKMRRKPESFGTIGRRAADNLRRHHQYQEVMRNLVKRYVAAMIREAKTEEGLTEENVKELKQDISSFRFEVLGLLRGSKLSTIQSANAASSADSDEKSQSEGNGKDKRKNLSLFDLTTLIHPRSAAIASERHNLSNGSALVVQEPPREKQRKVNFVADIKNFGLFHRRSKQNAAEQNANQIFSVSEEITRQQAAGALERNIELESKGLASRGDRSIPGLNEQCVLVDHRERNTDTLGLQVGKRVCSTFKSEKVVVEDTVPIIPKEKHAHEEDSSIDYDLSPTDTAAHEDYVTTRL

[7] = target: Luciferin 4-monooxygenase (Photinus pyralis, UniProt P08659); experiment: firefly luciferase enzyme inhibitors, dose response, biochemical, luminescence (AID 1891)
[8] = Luminescence Cell-Based Dose Confirmation HTS to Identify Inhibitors of Platelet Dense Granule Release. [Related pubchem assays: 1663 (Primary HTS), 1678 (Summary of Project)]; type: functional
[9] = target: T4, Mannose-6-phosphate isomerase (Homo sapiens, UniProt P34949); experiment: PMI enzyme inhibitors, confirmation, biochemical, fluorescence intensity (AID 1535)
T4 sequence (P34949 whole entry): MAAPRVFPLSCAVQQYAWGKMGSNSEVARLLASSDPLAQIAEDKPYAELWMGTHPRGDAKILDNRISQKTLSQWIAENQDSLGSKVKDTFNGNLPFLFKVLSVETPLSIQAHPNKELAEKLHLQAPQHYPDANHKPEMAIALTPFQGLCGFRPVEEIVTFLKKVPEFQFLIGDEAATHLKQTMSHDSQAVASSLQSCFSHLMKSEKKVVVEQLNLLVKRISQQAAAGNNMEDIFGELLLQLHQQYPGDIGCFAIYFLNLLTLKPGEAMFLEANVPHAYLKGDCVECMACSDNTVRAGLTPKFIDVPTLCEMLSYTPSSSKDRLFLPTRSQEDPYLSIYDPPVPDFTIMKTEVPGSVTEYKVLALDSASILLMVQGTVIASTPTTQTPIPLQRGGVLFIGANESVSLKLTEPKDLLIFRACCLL

[10] = target: T5, Phosphomannomutase 2 (Homo sapiens, UniProt O15305); experiment: Counter screen SAR assay for PMM2 inhibitors via a fluorescence intensity assay. [Related pubchem assays (depositor defined):AID1545, AID1574]
T5 sequence (O15305 whole entry): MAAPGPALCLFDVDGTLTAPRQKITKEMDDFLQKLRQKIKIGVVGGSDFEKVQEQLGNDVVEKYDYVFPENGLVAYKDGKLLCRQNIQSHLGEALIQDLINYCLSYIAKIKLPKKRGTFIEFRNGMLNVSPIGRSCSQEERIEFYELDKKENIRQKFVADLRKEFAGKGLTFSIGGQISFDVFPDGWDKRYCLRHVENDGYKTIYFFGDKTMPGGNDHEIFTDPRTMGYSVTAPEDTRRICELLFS

[11] = target: Troponin, cardiac muscle (Homo sapiens, UniProt P19429+P45379+P63316); experiment: Fluorescence-based biochemical high throughput dose response assay for activators of the calcium sensitivity of cardiac Regulated Thin Filaments (RTF). [Related pubchem assays (depositor defined):AID493008, AID493018, AID504382, AID504383]; type: protein-complex assay
[12] = target: T6, Hexokinase (Trypanosoma brucei, UniProt Q38C41); experiment: Confirmation assay for inhibitors of Trypanosoma brucei hexokinase 1-Analogue-first series. [Related pubchem assays (depositor defined):AID1430, AID1632, AID2516, AID2560, AID2579, AID2600, AID449725, AID492951]; type: functional
T6 sequence (Q38C41 whole entry): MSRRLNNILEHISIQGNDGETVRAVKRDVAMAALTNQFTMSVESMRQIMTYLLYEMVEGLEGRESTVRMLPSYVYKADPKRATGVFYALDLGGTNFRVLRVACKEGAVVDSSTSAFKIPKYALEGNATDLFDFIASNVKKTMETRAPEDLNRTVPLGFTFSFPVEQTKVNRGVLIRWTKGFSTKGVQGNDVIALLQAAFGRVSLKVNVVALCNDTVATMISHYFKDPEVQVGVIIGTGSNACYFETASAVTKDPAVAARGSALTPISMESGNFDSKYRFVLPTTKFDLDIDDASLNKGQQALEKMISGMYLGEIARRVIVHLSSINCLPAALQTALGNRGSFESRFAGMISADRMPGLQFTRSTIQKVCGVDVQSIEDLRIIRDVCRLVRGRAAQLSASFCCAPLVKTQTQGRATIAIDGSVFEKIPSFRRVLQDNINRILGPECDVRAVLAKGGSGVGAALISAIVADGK

[13] = target: Glucose-6-phosphate 1-dehydrogenase (Homo sapiens, UniProt P11413); experiment: human G6PD enzyme inhibitors, dose response, selectivity assay for P. falciparum G6PD inhibitor project, biochemical, fluorescence (AID 504792); type: functional
[14] = target: Alkaline phosphatase, placental type (Homo sapiens, UniProt P05187); experiment: PLAP enzyme inhibitors, confirmation, biochemical, luminescence (AID 1512); type: functional
[15] = target: T7, Alkaline phosphatase, tissue-nonspecific isozyme (Homo sapiens, UniProt P05186); experiment: human TNAP enzyme inhibitors, SAR follow-up, biochemical, luminescent, dose response (AID 1056)
T7 sequence (P05186 whole entry): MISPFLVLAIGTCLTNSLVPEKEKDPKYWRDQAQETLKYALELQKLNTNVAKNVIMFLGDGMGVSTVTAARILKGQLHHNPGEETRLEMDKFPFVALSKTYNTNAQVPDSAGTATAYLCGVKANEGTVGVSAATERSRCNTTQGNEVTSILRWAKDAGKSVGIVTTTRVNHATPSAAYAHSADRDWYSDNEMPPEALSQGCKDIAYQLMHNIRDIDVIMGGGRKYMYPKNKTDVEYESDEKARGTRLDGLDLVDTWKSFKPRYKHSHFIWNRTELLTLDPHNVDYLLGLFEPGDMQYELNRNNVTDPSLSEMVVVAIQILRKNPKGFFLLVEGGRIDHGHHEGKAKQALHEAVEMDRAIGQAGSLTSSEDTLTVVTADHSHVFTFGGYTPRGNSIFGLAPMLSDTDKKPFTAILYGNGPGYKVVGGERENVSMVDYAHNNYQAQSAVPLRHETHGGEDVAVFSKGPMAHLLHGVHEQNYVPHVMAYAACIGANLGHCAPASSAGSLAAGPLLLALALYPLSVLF

T2 sequence (Q00975 whole entry): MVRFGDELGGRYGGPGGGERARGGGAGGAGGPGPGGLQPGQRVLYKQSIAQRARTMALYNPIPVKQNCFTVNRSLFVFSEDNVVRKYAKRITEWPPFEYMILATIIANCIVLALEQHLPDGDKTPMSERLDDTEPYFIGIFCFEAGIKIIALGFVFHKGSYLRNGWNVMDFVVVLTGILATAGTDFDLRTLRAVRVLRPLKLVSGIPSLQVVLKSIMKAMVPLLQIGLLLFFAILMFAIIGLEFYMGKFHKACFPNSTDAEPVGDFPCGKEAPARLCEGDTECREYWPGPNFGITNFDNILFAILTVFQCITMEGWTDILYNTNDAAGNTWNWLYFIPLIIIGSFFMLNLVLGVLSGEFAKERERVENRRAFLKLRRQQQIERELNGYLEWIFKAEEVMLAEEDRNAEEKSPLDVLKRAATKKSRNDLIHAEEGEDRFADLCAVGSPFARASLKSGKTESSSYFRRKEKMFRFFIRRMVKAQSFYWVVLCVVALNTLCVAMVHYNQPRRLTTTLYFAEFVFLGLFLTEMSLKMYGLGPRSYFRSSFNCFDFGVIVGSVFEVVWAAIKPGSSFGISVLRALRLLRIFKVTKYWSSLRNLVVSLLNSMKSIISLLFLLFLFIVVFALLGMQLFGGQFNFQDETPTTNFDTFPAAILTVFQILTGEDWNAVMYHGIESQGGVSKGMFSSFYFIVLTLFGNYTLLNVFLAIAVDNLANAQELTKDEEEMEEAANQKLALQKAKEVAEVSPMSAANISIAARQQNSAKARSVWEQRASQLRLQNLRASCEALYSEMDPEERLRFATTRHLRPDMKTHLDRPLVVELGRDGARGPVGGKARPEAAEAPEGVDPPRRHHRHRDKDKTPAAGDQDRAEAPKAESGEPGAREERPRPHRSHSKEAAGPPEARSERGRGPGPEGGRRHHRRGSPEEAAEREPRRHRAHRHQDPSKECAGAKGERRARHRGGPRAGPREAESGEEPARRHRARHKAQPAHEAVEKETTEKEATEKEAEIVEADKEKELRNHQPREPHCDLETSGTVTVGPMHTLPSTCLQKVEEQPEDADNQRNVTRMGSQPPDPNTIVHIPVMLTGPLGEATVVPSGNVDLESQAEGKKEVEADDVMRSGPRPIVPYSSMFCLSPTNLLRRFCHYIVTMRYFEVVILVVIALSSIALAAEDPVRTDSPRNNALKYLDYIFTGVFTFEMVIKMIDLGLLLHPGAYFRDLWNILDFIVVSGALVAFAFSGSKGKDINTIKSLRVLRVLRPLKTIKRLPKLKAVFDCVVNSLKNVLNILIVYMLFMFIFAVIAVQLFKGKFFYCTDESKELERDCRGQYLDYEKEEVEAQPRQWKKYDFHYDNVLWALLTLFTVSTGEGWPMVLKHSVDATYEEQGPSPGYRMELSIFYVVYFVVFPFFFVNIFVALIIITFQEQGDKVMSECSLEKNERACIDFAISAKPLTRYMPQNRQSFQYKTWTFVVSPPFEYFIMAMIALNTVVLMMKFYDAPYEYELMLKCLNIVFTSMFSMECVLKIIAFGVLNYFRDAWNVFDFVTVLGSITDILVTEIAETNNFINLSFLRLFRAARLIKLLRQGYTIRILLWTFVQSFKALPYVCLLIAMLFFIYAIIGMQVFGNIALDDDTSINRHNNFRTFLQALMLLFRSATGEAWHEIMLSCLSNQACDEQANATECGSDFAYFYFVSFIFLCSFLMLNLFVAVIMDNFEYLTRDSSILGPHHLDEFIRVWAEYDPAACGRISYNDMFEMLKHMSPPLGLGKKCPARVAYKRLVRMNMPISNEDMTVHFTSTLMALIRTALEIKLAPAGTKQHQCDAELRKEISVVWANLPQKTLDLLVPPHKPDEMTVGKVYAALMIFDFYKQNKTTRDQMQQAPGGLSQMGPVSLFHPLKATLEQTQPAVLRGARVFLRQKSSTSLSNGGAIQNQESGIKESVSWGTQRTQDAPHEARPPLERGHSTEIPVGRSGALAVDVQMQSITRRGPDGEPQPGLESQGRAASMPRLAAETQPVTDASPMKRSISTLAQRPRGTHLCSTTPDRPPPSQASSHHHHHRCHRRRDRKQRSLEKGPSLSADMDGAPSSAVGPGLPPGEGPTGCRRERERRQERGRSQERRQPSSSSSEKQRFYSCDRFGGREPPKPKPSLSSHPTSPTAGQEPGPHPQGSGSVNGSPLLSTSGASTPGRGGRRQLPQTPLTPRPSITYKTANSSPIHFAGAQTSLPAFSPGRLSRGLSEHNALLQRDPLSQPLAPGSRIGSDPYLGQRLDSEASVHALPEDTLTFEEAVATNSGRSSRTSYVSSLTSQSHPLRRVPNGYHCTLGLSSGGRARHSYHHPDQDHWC
T2 sequence (Q02410 whole entry): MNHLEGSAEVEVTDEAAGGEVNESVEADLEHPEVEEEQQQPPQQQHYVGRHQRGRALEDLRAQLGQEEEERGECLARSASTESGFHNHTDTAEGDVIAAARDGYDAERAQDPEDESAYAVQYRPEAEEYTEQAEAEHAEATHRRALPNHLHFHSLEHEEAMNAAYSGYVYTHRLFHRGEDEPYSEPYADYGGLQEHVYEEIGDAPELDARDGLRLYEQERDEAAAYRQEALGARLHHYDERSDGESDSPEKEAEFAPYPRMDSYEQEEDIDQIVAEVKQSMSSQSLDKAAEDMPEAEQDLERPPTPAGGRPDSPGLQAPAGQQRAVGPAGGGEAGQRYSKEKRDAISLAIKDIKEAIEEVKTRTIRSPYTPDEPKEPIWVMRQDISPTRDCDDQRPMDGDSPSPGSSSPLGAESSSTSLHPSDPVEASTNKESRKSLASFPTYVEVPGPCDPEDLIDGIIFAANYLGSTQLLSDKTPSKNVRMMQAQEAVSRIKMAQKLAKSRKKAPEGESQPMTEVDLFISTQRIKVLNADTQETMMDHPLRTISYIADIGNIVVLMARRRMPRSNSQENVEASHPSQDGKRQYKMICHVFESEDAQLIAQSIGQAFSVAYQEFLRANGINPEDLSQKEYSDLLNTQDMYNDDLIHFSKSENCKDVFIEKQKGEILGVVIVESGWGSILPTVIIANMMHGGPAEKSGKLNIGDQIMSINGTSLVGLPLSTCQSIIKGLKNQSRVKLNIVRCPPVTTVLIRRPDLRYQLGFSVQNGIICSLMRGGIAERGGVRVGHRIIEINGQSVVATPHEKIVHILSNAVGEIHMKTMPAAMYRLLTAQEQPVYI
Chain of Luciferin 4-monooxygenase (P08659 whole entry): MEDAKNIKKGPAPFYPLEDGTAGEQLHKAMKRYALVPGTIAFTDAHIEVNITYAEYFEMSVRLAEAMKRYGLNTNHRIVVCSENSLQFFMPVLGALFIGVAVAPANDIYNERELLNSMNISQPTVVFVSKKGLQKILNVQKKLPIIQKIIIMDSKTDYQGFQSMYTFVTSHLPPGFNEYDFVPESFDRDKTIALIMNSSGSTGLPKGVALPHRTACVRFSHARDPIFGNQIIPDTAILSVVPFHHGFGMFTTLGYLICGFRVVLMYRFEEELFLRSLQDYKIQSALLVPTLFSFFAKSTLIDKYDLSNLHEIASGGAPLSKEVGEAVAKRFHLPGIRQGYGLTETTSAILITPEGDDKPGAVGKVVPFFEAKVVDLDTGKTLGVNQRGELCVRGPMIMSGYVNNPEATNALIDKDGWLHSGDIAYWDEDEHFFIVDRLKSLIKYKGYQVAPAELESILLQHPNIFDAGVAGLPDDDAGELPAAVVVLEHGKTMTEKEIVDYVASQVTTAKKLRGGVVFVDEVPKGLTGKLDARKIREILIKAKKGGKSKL
Chain of Glucose-6-phosphate 1-dehydrogenase (P11413 whole entry): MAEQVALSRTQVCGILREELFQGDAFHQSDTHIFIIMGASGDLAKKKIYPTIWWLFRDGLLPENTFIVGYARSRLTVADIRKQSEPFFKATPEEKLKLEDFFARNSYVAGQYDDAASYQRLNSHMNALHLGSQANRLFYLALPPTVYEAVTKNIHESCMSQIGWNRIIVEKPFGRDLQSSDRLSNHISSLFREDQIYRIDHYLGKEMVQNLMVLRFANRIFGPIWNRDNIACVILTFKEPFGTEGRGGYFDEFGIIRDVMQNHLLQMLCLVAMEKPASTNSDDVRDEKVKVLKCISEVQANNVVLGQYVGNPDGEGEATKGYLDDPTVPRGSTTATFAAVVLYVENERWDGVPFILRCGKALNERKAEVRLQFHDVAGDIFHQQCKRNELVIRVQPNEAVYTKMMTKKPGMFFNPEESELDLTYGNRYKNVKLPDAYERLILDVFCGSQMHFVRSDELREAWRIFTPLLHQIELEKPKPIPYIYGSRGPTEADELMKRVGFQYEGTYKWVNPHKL
Chain of Alkaline phosphatase, placental type (P05187 whole entry): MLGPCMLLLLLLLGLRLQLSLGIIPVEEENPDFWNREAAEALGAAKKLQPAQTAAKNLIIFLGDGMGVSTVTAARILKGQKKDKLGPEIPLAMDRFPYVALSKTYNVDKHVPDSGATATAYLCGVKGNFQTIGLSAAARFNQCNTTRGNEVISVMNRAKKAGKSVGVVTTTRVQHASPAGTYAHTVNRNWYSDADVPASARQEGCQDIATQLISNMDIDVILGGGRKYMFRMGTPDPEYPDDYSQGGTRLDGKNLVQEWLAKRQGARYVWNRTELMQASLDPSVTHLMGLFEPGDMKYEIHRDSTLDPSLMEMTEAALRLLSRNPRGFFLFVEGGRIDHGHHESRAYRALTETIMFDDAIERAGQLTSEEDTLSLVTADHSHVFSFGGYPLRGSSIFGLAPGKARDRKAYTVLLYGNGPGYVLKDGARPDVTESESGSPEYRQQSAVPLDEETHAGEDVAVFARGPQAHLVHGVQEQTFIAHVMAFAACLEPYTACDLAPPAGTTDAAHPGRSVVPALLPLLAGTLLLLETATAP
Chain of DNA dC->dU-editing enzyme APOBEC-3A (P31941 whole entry): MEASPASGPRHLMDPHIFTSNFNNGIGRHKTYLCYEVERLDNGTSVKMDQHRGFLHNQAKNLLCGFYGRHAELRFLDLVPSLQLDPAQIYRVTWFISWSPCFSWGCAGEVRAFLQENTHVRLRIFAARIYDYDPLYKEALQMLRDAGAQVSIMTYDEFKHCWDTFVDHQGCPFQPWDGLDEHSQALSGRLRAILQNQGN

O=S(=O)(c1ccc(S(=O)(=O)N2CCCC2)cc1)N1CCCCCC1
IC50 [1]: > 50 µM (inactive)

N#Cc1cccc(NC(=O)C[n+]2c3n(c4ccc(C(F)(F)F)cc42)CCCCC3)c1
IC50 [2]: 2.75 µM (active)
IC50 [3]: 1.97 µM (active)

CN1C(=O)C(=C/C=C/Nc2ccccc2)C(=O)N(C)C1=S
IC50 [4]: > 50 µM (inactive)
IC50 [5]: 6.18 µM (active)

COc1ccc(-c2nn(-c3ccccc3)cc2CNCc2cccnc2)c(F)c1
EC50 [6]: 5.96 µM (active)

COc1ccc(N2C(=O)CC(Nc3cccc([N+](=O)[O-])c3)C2=O)cc1 (centres undefined)
IC50 [1]: > 50 µM (inactive)

CN1CCCC(OC(=O)c2cc(Br)ccc2Cl)C1 (centres undefined)
EC50 [6]: 0.211 µM (active)
EC50 [7]: > 112 µM (not active)
EC50 [8]: > 56.1 µM (not active)

Cc1cc2n(n1)SC(Nc1cc(Cl)ccc1Cl)N2 (centres undefined)
IC50 [9]: > 50 µM (inactive)
IC50 [10]: > 100 µM (inactive)

O=C(O)c1cc(NCc2ccc(F)cc2)ccc1N1CCOCC1
EC50 [11]: > 71.5 µM (inactive)

CC(=O)Nc1ccc(OC(=O)c2cc3cc(Br)ccc3oc2=O)cc1
IC50 [4]: > 50 µM (inactive)
IC50 [5]: 2 µM (active)

COc1ccc(C(=O)Nc2cc(Cl)ccc2C#N)cc1
IC50 [12]: > 25 µM (inactive)

COc1ccc(N2C(=O)c3ccc(Cl)cc3C2=O)cc1
IC50 [12]: > 25 µM (inactive)

O=c1c2ccccc2sn1-c1ccccc1Cl
IC50 [12]: 1.97 µM (active)

Cc1csc2c(N3CCN(C(=O)Nc4ccc(OC(F)(F)F)cc4)CC3)ncnc12
EC50 [6]: 1.88 µM (active)

COc1cc(C(=O)O/N=C2\C=CC(=O)C=C2C)cc(OC)c1OC
IC50 [1]: 10.3 µM (active)
IC50 [13]: > 80 µM (inactive)

CC1(C)CC(=O)C=C(Nc2ccccc2N)C1
EC50 [11]: > 71.5 µM (inactive)

Cc1ccc(-c2nnc(SCC(=O)c3ccc(O)c(O)c3)n2-c2ccccc2)cc1
IC50 [14]: > 100 µM (inactive)
IC50 [15]: > 100 µM (inactive)
